Data: patent publication US20230346272A1 (priority 2021, published 2023)

Assay: Differential Pulse Voltammetry (DPV) with microneedle sensor array, oxycodone and metabolites (FIG. 10)
Format: physicochemical
Settings: applied voltages from 0 to 1.2V

| Structure (SMILES) | current peak (DPV) | voltage of the current peak (DPV) |
| --- | --- | --- |
| COc1ccc2c3c1O[C@H]1C(=O)CC[C@@]4(O)[C@@H](C2)NCC[C@]314 [noroxycodone] | about 165 μA | about 0.95 V |
| COc1ccc2c3c1O[C@H]1C(=O)CC[C@@]4(O)[C@@H](C2)N(C)CC[C@]314 [oxycodone] | about 100 μA | about 0.75 V |
| CN1CC[C@]23c4c5ccc(O)c4O[C@H]2C(=O)CC[C@@]3(O)[C@H]1C5 [oxymorphone] | about 30 μA | about 0.45 V |
